The source of these data is patent US20230064983A1 (priority 2020, published 2023).

Test [1] has as its target T1, EGFR with insertion SVD between D770 and N771 (mutEGFR D770_N771insSVD) (Homo sapiens, UniProt P00533, DUP768-770).
T1 construct: amino acids R669 to A1210; made in house; host or cells: Sf9 insect cells (baculovirus)
Kind of test: Exon20-Mutant-EGFR(D770_N771insSVD) kinase assay (TR-FRET). Type of test: biochemical. Particulars: 2 mM ATP, Table 2.

A further test has as its target T2, Bub1 (Homo sapiens, UniProt O43683).
T2 construct: catalytic domain of human Bub1 (amino acids 704-1085); His6 (N); made in house; host or cells: insect cells (Hi5)
The experiment in a line: Bub1 high ATP kinase assay (TR-FRET). Type of test: biochemical. Conditions: Bub1 high ATP (2 mM) IC50, TR-FRET, 2 mM ATP; Table 3. The essentials: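 Read-out was the 665/620 nm TR-FRET ratio after 1 h at 22 °C with EDTA stop mix (streptavidin-XL665, anti-phosphoserine antibody, Eu anti-mouse IgG). Beforehand, a biotinylated peptide was phosphorylated for 60 min at 22 °C under high ATP by His6-tagged human Bub1 residues 704-1085 expressed in Hi5 cells, about 200 ng/ml.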

In test [2] the target is Ba/F3-EGFR-D770_N771insSVD cells (Homo sapiens, UniProt P00533, DUP768-770, cells depend on it). Kind of test: Ba/F3 cell survival assay, EGFR D770_N771insSVD. Particulars: Cell Titer-Glo, 48 h, without IL-3; Table 4; read-out: BA/F3 (insSVD) IC50. Type of test: cell-based.
A further test has as its target Ba/F3-EGFR-WT cells (Homo sapiens, UniProt P00533). The experiment in a line: Ba/F3 cell survival assay, wild type EGFR. Particulars: Cell Titer-Glo, 48 h, with 10 ng/mL EGF; Table 4; read-out: BA/F3 (wild type) IC50. It counts as cell-based.

T1 sequence (P00533 other isoform, or with tags, fused parts or gaps DUP768-770): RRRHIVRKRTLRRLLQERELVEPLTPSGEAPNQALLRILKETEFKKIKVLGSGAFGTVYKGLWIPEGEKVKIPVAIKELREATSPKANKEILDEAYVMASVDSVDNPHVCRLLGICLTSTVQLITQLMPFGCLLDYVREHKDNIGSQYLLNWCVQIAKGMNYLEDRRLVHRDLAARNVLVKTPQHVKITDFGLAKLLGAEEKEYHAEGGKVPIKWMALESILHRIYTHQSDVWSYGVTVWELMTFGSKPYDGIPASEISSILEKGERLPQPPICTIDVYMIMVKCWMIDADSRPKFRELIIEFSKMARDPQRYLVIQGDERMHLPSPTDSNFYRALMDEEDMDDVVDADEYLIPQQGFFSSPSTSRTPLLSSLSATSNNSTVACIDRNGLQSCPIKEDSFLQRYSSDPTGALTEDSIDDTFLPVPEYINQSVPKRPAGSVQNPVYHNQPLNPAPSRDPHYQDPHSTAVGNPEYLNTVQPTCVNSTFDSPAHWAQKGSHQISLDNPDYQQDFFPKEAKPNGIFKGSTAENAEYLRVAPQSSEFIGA
T2 sequence (O43683 704-1085): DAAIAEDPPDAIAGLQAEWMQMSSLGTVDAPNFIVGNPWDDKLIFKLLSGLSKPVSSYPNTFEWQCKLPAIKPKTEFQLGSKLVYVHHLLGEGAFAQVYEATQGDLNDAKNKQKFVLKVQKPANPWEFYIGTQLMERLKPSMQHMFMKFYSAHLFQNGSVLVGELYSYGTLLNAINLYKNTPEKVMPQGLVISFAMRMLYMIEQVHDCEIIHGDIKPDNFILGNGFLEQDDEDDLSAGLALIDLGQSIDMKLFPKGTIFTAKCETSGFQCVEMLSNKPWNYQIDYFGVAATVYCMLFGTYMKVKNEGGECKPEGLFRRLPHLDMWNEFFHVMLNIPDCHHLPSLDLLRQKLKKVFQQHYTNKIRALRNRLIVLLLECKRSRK
Ba/F3-EGFR-WT cells, sequence (P00533 whole entry, looked up, change not shown): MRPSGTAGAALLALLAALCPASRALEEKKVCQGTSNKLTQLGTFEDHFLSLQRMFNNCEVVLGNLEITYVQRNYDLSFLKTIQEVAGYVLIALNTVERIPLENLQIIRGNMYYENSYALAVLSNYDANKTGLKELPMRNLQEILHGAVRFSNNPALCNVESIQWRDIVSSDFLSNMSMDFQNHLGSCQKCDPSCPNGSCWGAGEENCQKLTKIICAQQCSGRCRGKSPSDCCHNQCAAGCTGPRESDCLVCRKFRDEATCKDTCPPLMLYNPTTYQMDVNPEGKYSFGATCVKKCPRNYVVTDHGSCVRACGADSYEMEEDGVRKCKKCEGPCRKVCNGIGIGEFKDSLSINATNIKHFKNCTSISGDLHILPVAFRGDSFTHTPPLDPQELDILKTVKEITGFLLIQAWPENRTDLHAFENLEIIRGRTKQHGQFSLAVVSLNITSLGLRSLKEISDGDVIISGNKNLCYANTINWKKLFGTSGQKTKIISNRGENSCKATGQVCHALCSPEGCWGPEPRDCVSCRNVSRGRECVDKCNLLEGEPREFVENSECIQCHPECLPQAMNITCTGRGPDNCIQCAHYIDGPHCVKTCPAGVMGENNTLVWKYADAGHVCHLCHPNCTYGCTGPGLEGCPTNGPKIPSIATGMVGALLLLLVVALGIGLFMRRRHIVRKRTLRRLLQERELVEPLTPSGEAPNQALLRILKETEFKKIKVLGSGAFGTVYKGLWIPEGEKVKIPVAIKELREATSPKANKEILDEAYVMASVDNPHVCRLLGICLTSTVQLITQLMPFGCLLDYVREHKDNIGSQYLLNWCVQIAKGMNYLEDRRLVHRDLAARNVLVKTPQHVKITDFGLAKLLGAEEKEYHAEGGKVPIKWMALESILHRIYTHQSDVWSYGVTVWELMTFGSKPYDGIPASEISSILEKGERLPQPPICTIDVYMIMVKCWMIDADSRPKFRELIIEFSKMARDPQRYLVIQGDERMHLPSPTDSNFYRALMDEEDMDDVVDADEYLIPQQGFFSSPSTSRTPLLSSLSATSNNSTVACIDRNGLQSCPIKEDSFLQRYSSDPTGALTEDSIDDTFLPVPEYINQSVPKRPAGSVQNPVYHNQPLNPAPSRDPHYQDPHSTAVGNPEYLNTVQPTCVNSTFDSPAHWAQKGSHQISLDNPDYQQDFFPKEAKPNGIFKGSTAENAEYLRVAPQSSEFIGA
Ba/F3-EGFR-D770_N771insSVD cells, sequence (P00533 with tags, fused parts or gaps DUP768-770): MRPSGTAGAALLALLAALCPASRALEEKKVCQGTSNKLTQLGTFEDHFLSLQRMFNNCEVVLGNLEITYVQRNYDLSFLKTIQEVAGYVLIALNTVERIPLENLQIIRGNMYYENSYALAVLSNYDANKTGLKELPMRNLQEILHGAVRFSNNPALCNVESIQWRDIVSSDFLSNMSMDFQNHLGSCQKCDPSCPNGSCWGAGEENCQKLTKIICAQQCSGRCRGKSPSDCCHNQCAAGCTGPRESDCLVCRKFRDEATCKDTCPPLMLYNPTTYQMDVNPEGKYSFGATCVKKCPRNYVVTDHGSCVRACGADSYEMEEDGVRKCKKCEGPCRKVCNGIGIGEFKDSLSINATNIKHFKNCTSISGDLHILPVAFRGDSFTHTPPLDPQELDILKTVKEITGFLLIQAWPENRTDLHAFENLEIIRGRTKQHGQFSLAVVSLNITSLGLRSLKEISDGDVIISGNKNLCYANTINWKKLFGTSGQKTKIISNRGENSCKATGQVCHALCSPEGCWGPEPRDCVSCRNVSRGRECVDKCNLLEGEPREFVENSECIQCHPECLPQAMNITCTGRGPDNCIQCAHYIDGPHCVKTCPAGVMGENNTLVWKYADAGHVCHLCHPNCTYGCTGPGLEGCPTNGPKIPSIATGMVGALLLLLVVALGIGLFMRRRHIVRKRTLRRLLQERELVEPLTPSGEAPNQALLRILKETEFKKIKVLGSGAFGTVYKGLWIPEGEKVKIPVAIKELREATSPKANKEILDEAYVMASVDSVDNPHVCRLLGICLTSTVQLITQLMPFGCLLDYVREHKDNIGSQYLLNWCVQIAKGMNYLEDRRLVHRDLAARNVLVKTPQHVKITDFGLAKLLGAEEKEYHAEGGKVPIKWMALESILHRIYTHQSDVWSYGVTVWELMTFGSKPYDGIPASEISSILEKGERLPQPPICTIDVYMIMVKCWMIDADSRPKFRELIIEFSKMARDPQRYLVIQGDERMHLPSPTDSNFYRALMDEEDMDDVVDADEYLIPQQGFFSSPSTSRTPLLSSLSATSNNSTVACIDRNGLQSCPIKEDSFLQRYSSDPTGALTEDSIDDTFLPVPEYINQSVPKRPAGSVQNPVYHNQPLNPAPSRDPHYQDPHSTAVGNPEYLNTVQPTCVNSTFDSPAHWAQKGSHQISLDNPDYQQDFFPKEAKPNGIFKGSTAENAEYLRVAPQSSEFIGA

Turning to `Cc1c(Cl)cccc1Nc1c(-c2ccncc2OC[C@@H]2CN(C)CCO2)[nH]c2c1C(=O)N[C@H](C)C2` [Example 107, (6R)-3-(3-chloro-2-methylanilino)-6-methyl-2-(3-{[(2S)-4-methylmorpholin-2-yl]methoxy}pyridin-4-yl)-1,5,6,7-tetrahydro-4H-pyrrolo[3,2-c]pyridin-4-one], in test [1], the “mutEGFR (D770_N771insSVD) kinase assay IC50” value (shortened to “mutEGFR”) was 0.115 nM. This compound returned an IC50 against Bub1 of over 20000 nM. Besides, the GI50 in test [2] came to 25 nM; on Ba/F3-EGFR-WT cells, 546 nM.
For `C[C@@H]1Cc2[nH]c(-c3ccncc3OCC3COCCO3)c(Nc3cccc(F)c3CC(F)F)c2C(=O)N1` (stereo partly drawn) [Example 108, (6R)-3-[2-(2,2-difluoroethyl)-3-fluoro-anilino]-2-[3-(1,4-dioxan-2-ylmethoxy)-4-pyridyl]-6-methyl-1,5,6,7-tetrahydropyrrolo[3,2-c]pyridin-4-one], the “mutEGFR” value in test [1] was determined as 0.213 nM. The compound further gave an IC50 on Bub1 of 6220 nM. The GI50 amounted to 141 nM in test [2] and 1400 nM at Ba/F3-EGFR-WT cells.
Taken in the same sequence, the figures for `CCc1c(Cl)cccc1Nc1c(-c2ccncc2OC[C@@H]2CCCO2)[nH]c2c1C(=O)N[C@H](C)C2` [Example 109, (6R)-3-(3-chloro-2-ethylanilino)-6-methyl-2-(3-{[(2S)-oxolan-2-yl]methoxy}pyridin-4-yl)-1,5,6,7-tetrahydro-4H-pyrrolo[3,2-c]pyridin-4-one] were 0.526 nM, 3590 nM, 66.9 nM and 944 nM.
For the compound `CCc1c(Cl)cccc1Nc1c(-c2ccncc2OC[C@@H]2COCCO2)[nH]c2c1C(=O)N[C@H](C)C2` [Example 110, (6R)-3-(3-chloro-2-ethylanilino)-2-(3-{[(2S)-1,4-dioxan-2-yl]methoxy}pyridin-4-yl)-6-methyl-1,5,6,7-tetrahydro-4H-pyrrolo[3,2-c]pyridin-4-one], the “mutEGFR” value in test [1] came to 0.333 nM. This compound came in with a concentration for half-maximal inhibition (IC50) against Bub1 of 1210 nM. Further, the GI50 in test [2] was found to be 40.3 nM; on Ba/F3-EGFR-WT cells it was 780 nM.
In the case of `COc1c(Cl)cccc1Nc1c(-c2ccncc2OC[C@@H]2COCCO2)[nH]c2c1C(=O)NC1(CC1)C2` [Example 111, 3′-(3-chloro-2-methoxyanilino)-2′-(3-{[(2S)-1,4-dioxan-2-yl]methoxy}pyridin-4-yl)-1′,7′-dihydrospiro[cyclopropane-1,6′-pyrrolo[3,2-c]pyridin]-4′(5′H)-one], the “mutEGFR” value in test [1] is 0.205 nM. In addition, the IC50 at Bub1 is 374 nM. The figures for the GI50 (in test [2]; at Ba/F3-EGFR-WT cells) were 19.4 nM and 574 nM, respectively.
`COc1c(Cl)cccc1Nc1c(-c2ccncc2OC[C@@H]2CN(C)CCO2)[nH]c2c1C(=O)NC1(CC1)C2` [Example 112, 3′-(3-chloro-2-methoxyanilino)-2′-(3-{[(2S)-4-methylmorpholin-2-yl]methoxy}pyridin-4-yl)-1′,7′-dihydrospiro[cyclopropane-1,6′-pyrrolo[3,2-c]pyridin]-4′(5′H)-one]: the “mutEGFR” value in test [1] turned out to be 0.193 nM. On Bub1, this compound had an IC50 of 7830 nM. The GI50 in test [2] stood at 20.4 nM; on Ba/F3-EGFR-WT cells it was 553 nM.
The corresponding values for `C=CCOCCOc1cnccc1-c1[nH]c2c(c1Nc1cccc(Cl)c1OC)C(=O)NCC2CC=C` (stereo not shown) [Example 114, 7-allyl-2-[3-(2-allyloxyethoxy)-4-pyridyl]-3-(3-chloro-2-methoxy-anilino)-1,5,6,7-tetrahydropyrrolo[3,2-c]pyridin-4-one] are 0.181 nM, 2070 nM, 28.7 nM and 347 nM.
For the compound `COc1c(Cl)cccc1Nc1c(-c2ccncc2OCC2COCCO2)[nH]c2c1C(=O)NC1(CCC1)C2` (stereo not shown) [Example 123, 3-(3-chloro-2-methoxy-anilino)-2-[3-(1,4-dioxan-2-ylmethoxy)-4-pyridyl]spiro[5,7-dihydro-1H-pyrrolo[3,2-c]pyridine-6,1′-cyclobutane]-4-one], the “mutEGFR” value in test [1] was 0.241 nM. In addition, the IC50 against Bub1 was 439 nM. In addition, the GI50 in test [2] is 33.9 nM; on Ba/F3-EGFR-WT cells, 604 nM.
As for `COc1c(Cl)cccc1Nc1c(-c2ccncc2OC[C@@H]2CCCO2)[nH]c2c1C(=O)NC1(CCC1)C2` [Example 126, 3′-(3-chloro-2-methoxyanilino)-2′-(3-{[(2S)-oxolan-2-yl]methoxy}pyridin-4-yl)-1′,7′-dihydrospiro[cyclobutane-1,6′-pyrrolo[3,2-c]pyridin]-4′(5′H)-one], the “mutEGFR” value in test [1] worked out at 0.279 nM. Further, on Bub1, inhibition was half-maximal at 1100 nM (IC50). The GI50 was 46.4 nM in test [2] and 814 nM at Ba/F3-EGFR-WT cells.
Consider `COc1c(Cl)cccc1Nc1c(-c2ccncc2OC[C@@H]2CCCCO2)[nH]c2c1C(=O)NC1(CCC1)C2` [Example 127, 3′-(3-chloro-2-methoxyanilino)-2′-(3-{[(2S)-oxan-2-yl]methoxy}pyridin-4-yl)-1′,7′-dihydrospiro[cyclobutane-1,6′-pyrrolo[3,2-c]pyridin]-4′(5′H)-one], for which the “mutEGFR” value in test [1] is 0.51 nM. In addition, half-maximal inhibition against Bub1 (IC50) required 1440 nM. Also, the values for the GI50 (in test [2]; at Ba/F3-EGFR-WT cells) were 12.1 nM and 406 nM, respectively.
Taken in the same sequence, the figures for `COc1c(Cl)cccc1Nc1c(-c2ccncc2OCCC2CCCCO2)[nH]c2c1C(=O)NC1(CCC1)C2` (stereo not shown) [Example 128, 3-(3-chloro-2-methoxy-anilino)-2-[3-(2-tetrahydropyran-2-ylethoxy)-4-pyridyl]spiro[5,7-dihydro-1H-pyrrolo[3,2-c]pyridine-6,1′-cyclobutane]-4-one] were 1.06 nM, 726 nM, 38.4 nM and 942 nM.
As to `COc1c(Cl)cccc1Nc1c(-c2ccncc2OCC2COC(C)(C)CO2)[nH]c2c1C(=O)NC1(CCC1)C2` (stereo not shown) [Example 129, 3′-(3-chloro-2-methoxyanilino)-2′-{3-[(5,5-dimethyl-1,4-dioxan-2-yl)methoxy]pyridin-4-yl}-1′,7′-dihydrospiro[cyclobutane-1,6′-pyrrolo[3,2-c]pyridin]-4′(5′H)-one], in test [1], the “mutEGFR” value was found to be 0.257 nM. The same compound registered an IC50 against Bub1 of 1310 nM. Moreover, the GI50 amounted to 14 nM in test [2] and 293 nM on Ba/F3-EGFR-WT cells.
Taken in the same sequence, the figures for `COc1c(Cl)cccc1Nc1c(-c2ccncc2OCC2COC(C)(C)CO2)[nH]c2c1C(=O)NC1(CC1)C2` (stereo not shown) [Example 132, 3′-(3-chloro-2-methoxyanilino)-2′-{3-[(5,5-dimethyl-1,4-dioxan-2-yl)methoxy]pyridin-4-yl}-1′,7′-dihydrospiro[cyclopropane-1,6′-pyrrolo[3,2-c]pyridin]-4′(5′H)-one] were 0.394 nM, 1480 nM, 44.9 nM and 986 nM.
